From patent US9909219B2, “Slurry biocide” (ECOLAB USA INC., priority 2014, dated 2018)

Columns and labels:
Total Aerobic Bacteria = experiment: Biocide treatment of pipeline makeup water (river water): total aerobic bacteria count; format: cell-based
Description: (§1) Two water samples collected directly of makeup water of a pipeline sourced form river water, were submitted to biocide treatment. One sample was highly contaminated with microorganisms (1700 CFU/mL) while the other was less contaminated (120 CFU/mL). […] There is a dramatic reduction in required dosage using oxidizing biocide ([…]) (Tests 3, 4 and 7).

[1] = test system: Sulfate Reducing Bacteria; experiment: Biocide treatment of pipeline makeup water (river water): sulfate reducing bacteria count; format: cell-based
Description: as §1

Row | Structure (SMILES) | Final Count Total Aerobic Bacteria (Total Aerobic Bacteria; Test 3, initial count 1700 CFU/mL, dosage 5 ppm) [CFU/mL] | Final Count Total Aerobic Bacteria (Total Aerobic Bacteria; Test 4, initial count 120 CFU/mL, dosage 4 ppm) [CFU/mL] | Final Count Total Aerobic Bacteria (Total Aerobic Bacteria; Test 7, initial count 120 CFU/mL, dosage 1.5 ppm) [CFU/mL] | Final Count Sulfate Reducing Bacteria ([1]; Test 3, initial count 30 CFU/mL, dosage 5 ppm) [CFU/mL] | Final Count Sulfate Reducing Bacteria ([1]; Test 4, initial count <10 CFU/mL, dosage 4 ppm) [CFU/mL] | Final Count Sulfate Reducing Bacteria ([1]; Test 7, initial count <10 CFU/mL, dosage 1.5 ppm) [CFU/mL] | Final Count Total Aerobic Bacteria (Total Aerobic Bacteria; Test 1, initial count 1700 CFU/mL, dosage 500 ppm) [CFU/mL] | Final Count Total Aerobic Bacteria (Total Aerobic Bacteria; Test 5, initial count 120 CFU/mL, dosage 500 ppm) [CFU/mL] | Final Count Sulfate Reducing Bacteria ([1]; Test 1, initial count 30 CFU/mL, dosage 500 ppm) [CFU/mL] | Final Count Sulfate Reducing Bacteria ([1]; Test 5, initial count <10 CFU/mL, dosage 500 ppm) [CFU/mL]
1 | [O][Cl+][O-] [ClO2, chlorine dioxide] | 30 | <27 | <27 | <10 | <10 | <10 |  |  |  | 
2 | O=CCCCC=O [A, Glutaraldehyde] |  |  |  |  |  |  | 330 | <27 | 10 | <10
